Laboratory results taken from PMC2009384, “The carcinogenicity of polycyclic hydrocarbon epoxides in newborn mice” (British Journal of Cancer, 1975).

Test system: newborn Swiss mice
Test: Experiment II: carcinogenicity in newborn mice, chrysene, 7-methylbenz(a)anthracene and K region epoxides (s.c. injection, tumour incidence to 70-75 weeks)
Settings: for effect on the incidence of liver, lung or other tumours: in the doses tested (3 x 100 µg or 1 x 60 µg)
Source text: Br. J. Cancer (1975) 31, 182 THE CARCINOGENICITY OF POLYCYCLIC HYDROCARBON EPOXIDES IN NEWBORN MICE P. L. GROVER, P. SIMS, B. C. V. MITCHLEY AND F. J. C. ROE From the Chester Beatty Research Institute, Institute of Cancer Research, Royal Cancer Hospital, Fulham Road, London, SW3 6JB Received 9 August 1974. […] THE HYPOTHESIS that the carcino- genicity of polycyclic hydrocarbons is associated with the formation of epoxide metabolites (Grover, Hewer and Sims, 1971, 1972; Keysell et al., 1973) is sup- ported by some experimental evidence but remains unproven. […] The epoxides can also act as alkylating agents (Grover and Sims, 1970) and as mutagens (Ames, Sims and Grover, 1972; Huberman et al., 1971; Cookson, Sims and Grover, 1971; Fahmy and Fahmy, 1973). […] The newborn mouse, which is susceptible to carcinogenic polycyclic hydrocarbons (Roe, Rowson and Salaman, 1961; Roe, Mitchley and Walters, 1963; Walters and Roe, 1964, 1966) can be considered as a convenient source of several types of rapidly dividing cells. Consequently we have tested the K region epoxides derived from phenanthrene, benz(a)anthracene, 7-methylbenz(a)anthracene, dibenz(a,h)- anthracene, chrysene and 3-methylchol- anthrene, together with some of the CARCINOGENICITY OF POLYCYCLIC HYDROCARBON EPOXIDES IN MICE 183 parent hydrocarbons, for carcinogenicity using newborn mice. This paper presents the results that were obtained in these experiments. MATERIALS AND METHODS The polycyclic hydrocarbon epoxides, phenanthrene 9,10-oxide, benz(a)anthracene 5,6-oxide, 7-methylbenz(a)anthracene 5,6- oxide, dibenz(a,h)anthracene 5,6-oxide, chry- sene 5,6-oxide and 3-methylcholanthrene 11,12-oxide were prepared from the parent hydrocarbons (Newman and Blum, 1964; Boyland and Sims, 1965; Sims 1966). Two experiments were undertaken fol- lowing similar protocols. For each experi- ment Swiss mice from a specific pathogen- free colony were time mated so as to produce a large number of litters over the course of 2 or 3 days. […] Test compounds were suspended in poly- ethylene glycol (PEG) 400 and injections of 0-02 ml of the suspension were given by introducing a 25 gauge hypodermic needle through the skin near the root of the tail and threading it subcutaneously to deliver the injected material in the interscapular region. Injections were given to every mouse on the first day or first 3 days of life. The details of treatments and numbers of mice of each sex in each group are shown in Table I (Experiment I) and Table II (Ex- periment II). Surviving mice were weaned when they w ere 21 days old. Thereafter, males and females w ere separated and housed 6 per cage in metal boxes. A mixture of sawdust and wood shavings was used as bedding. The mice were fed on a standard cubed diet (Formulation 86 from C. Holdman and Sons (Plow co Feeds), Byers Lane, South Godstone, Surrey) and water was given ad libitum. Mice were inspected daily, and at weekly intervals they were weighed and palpated for tumours and other lesions. […] The experiment was terminated when surviving mice were between 70 and 75 weeks old. A full routine post- mortem examination, which included disten- sion of the urinary bladder with fixative, was carried out. The number of lesions thought to be neoplasms and the size of the largest such lesion in each organ affected were recorded. All tissues with suspected neoplasms were fixed in Bouin's solution. Haematoxylin and eosin stained 5 µm paraffin wax sections were prepared and examined microscopically. RESULTS The results of the two experiments in terms of tumour incidence are sum- marized in […].

[1] = females, 60 µg, 1 treatment (Day 0 only) s.c. in PEG 400
[2] = males, 60 µg, 1 treatment (Day 0 only) s.c. in PEG 400
[3] = females, 100 µg per treatment, 3 treatments
[4] = females, 100 µg per treatment, 3 treatments (Days 0, 1 and 2) s.c. in PEG 400
[5] = males, 100 µg per treatment, 3 treatments
[6] = males, 100 µg per treatment, 3 treatments (Days 0, 1 and 2) s.c. in PEG 400

For `c1ccc2c(c1)-c1cc3ccc4ccccc4c3cc1C1OC21` (stereo not drawn) [Dibenz(a,h)anthracene 5,6-oxide], the “No. of mice examined at p.m. at termination of experiment (70-75th week) with liver tumours” value (females, 60 µg, 1 treatment) was 0, the “No. of mice examined at p.m. at termination of experiment (70-75th week) with lung tumours” value (females, 60 µg, 1 treatment) was 1 and the “No. of mice examined at p.m. at termination of experiment (70-75th week) with multiple liver tumours” value (females, 60 µg, 1 treatment) was 0. The “No. of mice examined at p.m. at termination of experiment (70-75th week) with multiple lung tumours” value (females, 60 µg, 1 treatment) was 0, the “No. of mice examined at p.m. at termination of experiment (70-75th week) with other tumours” value (females, 60 µg, 1 treatment) was 1 and the “No. of mice examined at p.m. from 50-70th week with liver tumours” value (females, 60 µg, 1 treatment) was 0. The “No. of mice examined at p.m. from 50-70th week with lung tumours” value (females, 60 µg, 1 treatment) was 0, the “No. of mice examined at p.m. from 50-70th week with other tumours” value (females, 60 µg, 1 treatment) was 0 and the “No. of survivors at 50 weeks” value [1] was 20. For the same compound, the “No. of survivors at 70 weeks” value [1] was 19, the “effect on the incidence of liver, lung or other tumours” value was “without apparent effect” and the “No. of mice examined at p.m. at termination of experiment (70-75th week) with liver tumours” value (males, 60 µg, 1 treatment) was 2. For the same compound, the “No. of mice examined at p.m. at termination of experiment (70-75th week) with lung tumours” value (males, 60 µg, 1 treatment) was 0, the “No. of mice examined at p.m. at termination of experiment (70-75th week) with multiple liver tumours” value (males, 60 µg, 1 treatment) was 1 and the “No. of mice examined at p.m. at termination of experiment (70-75th week) with multiple lung tumours” value (males, 60 µg, 1 treatment) was 0. The “No. of mice examined at p.m. at termination of experiment (70-75th week) with other tumours” value (males, 60 µg, 1 treatment) was 0, the “No. of mice examined at p.m. from 50-70th week with liver tumours” value (males, 60 µg, 1 treatment) was 0 and the “No. of mice examined at p.m. from 50-70th week with lung tumours” value (males, 60 µg, 1 treatment) was 0. For the same compound, the “No. of mice examined at p.m. from 50-70th week with other tumours” value (males, 60 µg, 1 treatment) was 0, the “No. of survivors at 50 weeks” value [2] was 19 and the “No. of survivors at 70 weeks” value [2] was 16.
For `c1ccc2c(c1)-c1ccccc1C1OC21` (stereo not drawn) [phenanthrene 9,10-oxide], the “No. of mice examined at p.m. at termination of experiment (70-75th week) with liver tumours” value [3] was 2, the “No. of mice examined at p.m. at termination of experiment (70-75th week) with lung tumours” value [3] was 0 and the “No. of mice examined at p.m. at termination of experiment (70-75th week) with multiple liver tumours” value [3] was 1. The “No. of mice examined at p.m. at termination of experiment (70-75th week) with multiple lung tumours” value [3] was 0, the “No. of mice examined at p.m. at termination of experiment (70-75th week) with other tumours” value [3] was 0 and the “No. of mice examined at p.m. from 50-70th week with liver tumours” value [3] was 0. The “No. of mice examined at p.m. from 50-70th week with lung tumours” value [3] was 0, the “No. of mice examined at p.m. from 50-70th week with other tumours” value [3] was 0 and the “No. of survivors at 50 weeks” value [4] was 13. For the same compound, the “No. of survivors at 70 weeks” value [4] was 13, the “effect on the incidence of liver, lung or other tumours” value was “no effect” and the “No. of mice examined at p.m. at termination of experiment (70-75th week) with liver tumours” value [5] was 4. For the same compound, the “No. of mice examined at p.m. at termination of experiment (70-75th week) with lung tumours” value [5] was 2, the “No. of mice examined at p.m. at termination of experiment (70-75th week) with multiple liver tumours” value [5] was 1 and the “No. of mice examined at p.m. at termination of experiment (70-75th week) with multiple lung tumours” value [5] was 1. For the same compound, the “No. of mice examined at p.m. at termination of experiment (70-75th week) with other tumours” value [5] was 0, the “No. of mice examined at p.m. from 50-70th week with liver tumours” value [5] was 0 and the “No. of mice examined at p.m. from 50-70th week with lung tumours” value [5] was 0. The “No. of mice examined at p.m. from 50-70th week with other tumours” value [5] was 0, the “No. of survivors at 50 weeks” value [6] was 19 and the “No. of survivors at 70 weeks” value [6] was 17.
